# Reference: ChEMBL document CHEMBL1201862, “PubChem BioAssay data set” (2004)
# The source made the active and inactive calls.
# Assays:
# [1] = target: Voltage-dependent T-type calcium channel subunit alpha-1H (Homo sapiens, UniProt O95180); type: functional;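 also: channel activity triggered by adding a high calcium stimulation buffer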
# [2] = target: T1, Carboxy-terminal domain RNA polymerase II polypeptide A small phosphatase 1 (Homo sapiens, UniProt Q9GZU7); assay: inhibitors of CTDSP1, concentration-response testing, biochemical assay, absorbance-based, actives from ultra-high-throughput screening (AID 540297); type: functional
# T1 sequence (Q9GZU7 whole entry): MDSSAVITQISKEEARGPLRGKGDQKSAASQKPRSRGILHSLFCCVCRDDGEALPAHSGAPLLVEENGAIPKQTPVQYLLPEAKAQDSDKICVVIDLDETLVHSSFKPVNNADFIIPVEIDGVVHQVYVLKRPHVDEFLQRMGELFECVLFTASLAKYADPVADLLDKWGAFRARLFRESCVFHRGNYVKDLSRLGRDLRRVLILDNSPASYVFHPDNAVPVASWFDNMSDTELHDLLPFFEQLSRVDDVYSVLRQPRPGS
# [3] = microbe, parasite or virus in culture; type: functional; details: Mycobacterium tuberculosis
# [4] = target: T2, Replicative DNA helicase DnaB (Mycobacterium tuberculosis, UniProt P9WMR3); assay: DnaB intein splicing inhibitors, dose response, biochemical, cell-free fluorescence (AID 449749); type: functional
# T2 sequence (P9WMR3 whole entry): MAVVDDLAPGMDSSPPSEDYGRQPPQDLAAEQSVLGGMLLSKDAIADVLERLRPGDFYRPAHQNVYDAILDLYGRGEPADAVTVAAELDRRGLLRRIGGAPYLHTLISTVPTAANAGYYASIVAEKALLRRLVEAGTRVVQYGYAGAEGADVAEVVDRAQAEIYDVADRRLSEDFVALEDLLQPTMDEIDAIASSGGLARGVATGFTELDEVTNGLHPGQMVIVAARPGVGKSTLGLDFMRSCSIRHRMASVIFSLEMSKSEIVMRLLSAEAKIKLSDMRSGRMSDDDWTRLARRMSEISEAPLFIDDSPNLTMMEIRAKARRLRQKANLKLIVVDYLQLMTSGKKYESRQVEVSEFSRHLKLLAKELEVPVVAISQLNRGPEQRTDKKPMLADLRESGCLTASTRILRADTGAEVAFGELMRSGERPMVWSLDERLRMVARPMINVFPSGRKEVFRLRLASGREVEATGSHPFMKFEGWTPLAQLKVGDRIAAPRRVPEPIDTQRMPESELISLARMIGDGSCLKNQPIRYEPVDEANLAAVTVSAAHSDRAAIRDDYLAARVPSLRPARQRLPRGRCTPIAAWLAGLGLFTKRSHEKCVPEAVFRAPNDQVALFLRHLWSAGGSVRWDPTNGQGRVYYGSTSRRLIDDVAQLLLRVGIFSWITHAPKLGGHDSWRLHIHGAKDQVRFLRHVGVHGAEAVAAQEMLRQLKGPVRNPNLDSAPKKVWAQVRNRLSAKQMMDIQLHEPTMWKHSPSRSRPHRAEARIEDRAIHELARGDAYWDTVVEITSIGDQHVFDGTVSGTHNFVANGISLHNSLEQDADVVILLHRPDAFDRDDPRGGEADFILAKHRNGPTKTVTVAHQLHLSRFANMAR
# Protein RecA = target: T3, Protein RecA (Mycobacterium tuberculosis, UniProt P9WHJ3); assay: Fluorescence Cell-Free Homogeneous Dose Retest to Identify Inhibitors of RecA-Intein Splicing Activity. [Related pubchem assays (depositor defined):AID2097, AID2223, AID489010, AID492950]; type: functional
# T3 sequence (P9WHJ3 whole entry): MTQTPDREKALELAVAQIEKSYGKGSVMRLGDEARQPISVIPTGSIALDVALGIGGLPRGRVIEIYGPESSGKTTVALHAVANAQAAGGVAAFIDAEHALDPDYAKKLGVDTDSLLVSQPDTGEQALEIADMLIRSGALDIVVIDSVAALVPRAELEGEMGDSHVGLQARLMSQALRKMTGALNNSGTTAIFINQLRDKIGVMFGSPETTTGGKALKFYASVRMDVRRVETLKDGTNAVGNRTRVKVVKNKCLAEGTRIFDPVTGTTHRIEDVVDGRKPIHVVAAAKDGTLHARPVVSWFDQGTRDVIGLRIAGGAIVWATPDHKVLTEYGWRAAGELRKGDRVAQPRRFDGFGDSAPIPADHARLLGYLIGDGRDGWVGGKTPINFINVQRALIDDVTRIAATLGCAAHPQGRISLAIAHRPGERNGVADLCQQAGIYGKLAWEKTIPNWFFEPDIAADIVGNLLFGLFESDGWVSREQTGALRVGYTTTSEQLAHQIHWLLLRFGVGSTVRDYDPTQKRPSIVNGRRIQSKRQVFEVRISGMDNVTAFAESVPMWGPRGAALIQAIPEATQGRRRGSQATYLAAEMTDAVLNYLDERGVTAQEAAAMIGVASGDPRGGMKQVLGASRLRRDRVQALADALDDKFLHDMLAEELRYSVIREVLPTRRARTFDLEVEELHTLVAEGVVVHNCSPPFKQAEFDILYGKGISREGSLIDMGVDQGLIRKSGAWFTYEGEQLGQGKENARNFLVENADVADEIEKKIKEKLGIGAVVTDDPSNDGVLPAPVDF
# [5] = system: Streptococcus sp. 'group A'; assay: growth inhibition of control SK(-) GAS strain, dose response, counter-screen for streptokinase expression inhibitor project, luminescence, kanamycin, BacTiterGlo, confirmation (AID 1900); type: functional, organism-based
# Streptokinase A = target: T4, Streptokinase A (Streptococcus pyogenes serotype M1, UniProt P10520); assay: S. pyogenes streptokinase expression inhibitors, potency, dose response, plasminogen activation absorbance, OD405 (AID 1914); type: functional, Streptococcus pyogenes M1 GAS;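 also: secreted streptokinase activity via plasminogen activation per viability signal from cell pellet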
# T4 sequence (P10520 whole entry): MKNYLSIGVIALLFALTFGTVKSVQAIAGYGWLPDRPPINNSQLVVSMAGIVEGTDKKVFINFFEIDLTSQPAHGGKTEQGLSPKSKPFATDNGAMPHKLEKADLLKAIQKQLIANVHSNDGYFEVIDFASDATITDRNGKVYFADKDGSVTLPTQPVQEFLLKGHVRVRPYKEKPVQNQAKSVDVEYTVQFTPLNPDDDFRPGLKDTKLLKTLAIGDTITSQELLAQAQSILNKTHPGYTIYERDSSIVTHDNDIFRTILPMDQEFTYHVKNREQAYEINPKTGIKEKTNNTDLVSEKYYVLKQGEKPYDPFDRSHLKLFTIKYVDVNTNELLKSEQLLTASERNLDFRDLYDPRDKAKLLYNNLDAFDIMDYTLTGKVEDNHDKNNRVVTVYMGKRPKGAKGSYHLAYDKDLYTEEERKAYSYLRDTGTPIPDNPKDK
# Streptococcus = assay: Group A Streptococcus viability loss, dose response, counter-screen for streptokinase expression inhibitor project, luminescence, BacTiterGlo (AID 1915); type: functional, organism-based;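 also: potency for reduction of bacterial viability or growth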
# [6] = target: T5, Ubiquitin-conjugating enzyme E2 N (Homo sapiens, UniProt P61088); type: functional;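 also: Dose-response confirmation in a TR-FRET assay detecting UBC13-driven polyubiquitin chain formation, inhibition measured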
# T5 sequence (P61088 whole entry): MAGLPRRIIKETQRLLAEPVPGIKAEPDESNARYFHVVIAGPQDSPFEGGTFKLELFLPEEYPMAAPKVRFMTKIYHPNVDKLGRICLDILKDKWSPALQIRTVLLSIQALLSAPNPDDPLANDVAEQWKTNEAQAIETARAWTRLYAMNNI
# SUMO-activating enzyme [7] = target: T6, SUMO-activating enzyme (Homo sapiens, UniProt Q9UBT2); assay: SUMOylation inhibitor hit validation, confirmation, SUMOylation inhibitor project, biochemical, AlphaScreen (AID 2018); type: functional
# BJ [8] = assay: cytotoxicity toward BJ-TERT fibroblasts, dose response, cell-based, RAS-independent, luminescence (AID 1933); type: functional; details: Homo sapiens
# BJ [9] = assay: cells; type: functional, cell-based; details: Homo sapiens
# BJ [10] = assay: cytotoxicity toward BJ-TERT-LT-ST fibroblasts, dose response, cell-based, RAS-independent, luminescence (AID 1935); type: functional; details: Homo sapiens;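 also: BJ fibroblasts immortalized with TERT plus LT and ST oncogenes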
# [11] = cytotoxicity toward DRD oncogenic fibroblasts, dose response, cell-based, non-viral oncogenic, luminescence (AID 1934); type: functional; details: Homo sapiens
# [12] = target: T7, Calpain-2 catalytic subunit (Sus scrofa, UniProt P43367); assay: pig calpain II inhibitor potency, dose response, biochemical, fluorogenic peptide substrate (AID 1420); type: functional
# T7 sequence (P43367 whole entry): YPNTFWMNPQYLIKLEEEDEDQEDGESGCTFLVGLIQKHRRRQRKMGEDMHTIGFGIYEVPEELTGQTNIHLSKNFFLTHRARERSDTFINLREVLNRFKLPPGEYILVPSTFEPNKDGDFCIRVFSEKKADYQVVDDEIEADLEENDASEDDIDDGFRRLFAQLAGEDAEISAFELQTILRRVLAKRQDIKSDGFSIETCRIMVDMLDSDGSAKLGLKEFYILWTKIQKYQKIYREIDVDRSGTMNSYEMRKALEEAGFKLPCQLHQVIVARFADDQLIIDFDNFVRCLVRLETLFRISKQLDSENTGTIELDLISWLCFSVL
# [13] = target: T8, Heat shock factor protein 1 (Mus musculus, UniProt P38532); assay: inhibition of MG132-induced HSE-luciferase signal, confirmation, cell-based, NIH3T3, luminescence, dose retest (AID 2382); type: functional;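 also: NIH3T3 fibroblasts with HSF1-driven luciferase reporter stressed by proteasome inhibitor MG132; luminescence from HSF1-driven luciferase expression after 8 hours of MG132 stress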
# T8 sequence (P38532 whole entry): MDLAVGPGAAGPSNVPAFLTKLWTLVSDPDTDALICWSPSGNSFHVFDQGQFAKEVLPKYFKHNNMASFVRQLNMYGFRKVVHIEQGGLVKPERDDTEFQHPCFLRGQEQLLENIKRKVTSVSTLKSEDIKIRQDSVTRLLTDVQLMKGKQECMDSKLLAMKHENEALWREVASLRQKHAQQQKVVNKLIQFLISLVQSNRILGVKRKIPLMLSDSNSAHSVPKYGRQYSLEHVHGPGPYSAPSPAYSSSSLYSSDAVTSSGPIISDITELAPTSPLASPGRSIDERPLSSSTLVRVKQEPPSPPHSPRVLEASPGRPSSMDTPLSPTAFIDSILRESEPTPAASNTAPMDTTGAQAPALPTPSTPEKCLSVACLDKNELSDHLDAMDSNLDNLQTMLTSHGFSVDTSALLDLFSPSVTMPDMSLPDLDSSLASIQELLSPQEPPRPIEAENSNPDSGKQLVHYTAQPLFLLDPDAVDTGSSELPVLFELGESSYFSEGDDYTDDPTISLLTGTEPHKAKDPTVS
# [14] = inhibitors of HIV Env-driven cell fusion, dose response, cherry-pick (AID 652057); type: functional, cell-based
# [15] = ZM109 Env clade C HIV-1 fusion inhibitors, dose response, HeLa effector, CEM target cells, luciferase, cherry-pick (AID 652058); type: functional, cell-based
# HEK293 = assay: inhibitors of LMP1-driven NF-kB reporter, dose response, cell-based, HEK293, luciferase, cherry-pick (AID 588343); type: functional; details: Homo sapiens
# INS1 = assay: beta cell apoptosis inhibitors, cytokine rescue, dose response, luminescence, retest (AID 449756); type: functional, cell-based; details: Rattus norvegicus;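 also: cell death triggered by IL-1 beta plus TNF-alpha plus IFN-gamma mixture; protective hits raise ATP signal compared with cytokine alone wells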
# SUMO-activating enzyme [16] = target: T6, SUMO-activating enzyme; assay: inhibitors of in vitro SUMOylation cascade, primary screen, biochemical, HTRF, uHTS (AID 2006); type: protein-complex assay
# SN12K1 = assay: cells; type: functional; details: Homo sapiens
# Chain of Voltage-dependent T-type calcium channel subunit alpha-1H (O95180 whole entry, the tested form may be a part): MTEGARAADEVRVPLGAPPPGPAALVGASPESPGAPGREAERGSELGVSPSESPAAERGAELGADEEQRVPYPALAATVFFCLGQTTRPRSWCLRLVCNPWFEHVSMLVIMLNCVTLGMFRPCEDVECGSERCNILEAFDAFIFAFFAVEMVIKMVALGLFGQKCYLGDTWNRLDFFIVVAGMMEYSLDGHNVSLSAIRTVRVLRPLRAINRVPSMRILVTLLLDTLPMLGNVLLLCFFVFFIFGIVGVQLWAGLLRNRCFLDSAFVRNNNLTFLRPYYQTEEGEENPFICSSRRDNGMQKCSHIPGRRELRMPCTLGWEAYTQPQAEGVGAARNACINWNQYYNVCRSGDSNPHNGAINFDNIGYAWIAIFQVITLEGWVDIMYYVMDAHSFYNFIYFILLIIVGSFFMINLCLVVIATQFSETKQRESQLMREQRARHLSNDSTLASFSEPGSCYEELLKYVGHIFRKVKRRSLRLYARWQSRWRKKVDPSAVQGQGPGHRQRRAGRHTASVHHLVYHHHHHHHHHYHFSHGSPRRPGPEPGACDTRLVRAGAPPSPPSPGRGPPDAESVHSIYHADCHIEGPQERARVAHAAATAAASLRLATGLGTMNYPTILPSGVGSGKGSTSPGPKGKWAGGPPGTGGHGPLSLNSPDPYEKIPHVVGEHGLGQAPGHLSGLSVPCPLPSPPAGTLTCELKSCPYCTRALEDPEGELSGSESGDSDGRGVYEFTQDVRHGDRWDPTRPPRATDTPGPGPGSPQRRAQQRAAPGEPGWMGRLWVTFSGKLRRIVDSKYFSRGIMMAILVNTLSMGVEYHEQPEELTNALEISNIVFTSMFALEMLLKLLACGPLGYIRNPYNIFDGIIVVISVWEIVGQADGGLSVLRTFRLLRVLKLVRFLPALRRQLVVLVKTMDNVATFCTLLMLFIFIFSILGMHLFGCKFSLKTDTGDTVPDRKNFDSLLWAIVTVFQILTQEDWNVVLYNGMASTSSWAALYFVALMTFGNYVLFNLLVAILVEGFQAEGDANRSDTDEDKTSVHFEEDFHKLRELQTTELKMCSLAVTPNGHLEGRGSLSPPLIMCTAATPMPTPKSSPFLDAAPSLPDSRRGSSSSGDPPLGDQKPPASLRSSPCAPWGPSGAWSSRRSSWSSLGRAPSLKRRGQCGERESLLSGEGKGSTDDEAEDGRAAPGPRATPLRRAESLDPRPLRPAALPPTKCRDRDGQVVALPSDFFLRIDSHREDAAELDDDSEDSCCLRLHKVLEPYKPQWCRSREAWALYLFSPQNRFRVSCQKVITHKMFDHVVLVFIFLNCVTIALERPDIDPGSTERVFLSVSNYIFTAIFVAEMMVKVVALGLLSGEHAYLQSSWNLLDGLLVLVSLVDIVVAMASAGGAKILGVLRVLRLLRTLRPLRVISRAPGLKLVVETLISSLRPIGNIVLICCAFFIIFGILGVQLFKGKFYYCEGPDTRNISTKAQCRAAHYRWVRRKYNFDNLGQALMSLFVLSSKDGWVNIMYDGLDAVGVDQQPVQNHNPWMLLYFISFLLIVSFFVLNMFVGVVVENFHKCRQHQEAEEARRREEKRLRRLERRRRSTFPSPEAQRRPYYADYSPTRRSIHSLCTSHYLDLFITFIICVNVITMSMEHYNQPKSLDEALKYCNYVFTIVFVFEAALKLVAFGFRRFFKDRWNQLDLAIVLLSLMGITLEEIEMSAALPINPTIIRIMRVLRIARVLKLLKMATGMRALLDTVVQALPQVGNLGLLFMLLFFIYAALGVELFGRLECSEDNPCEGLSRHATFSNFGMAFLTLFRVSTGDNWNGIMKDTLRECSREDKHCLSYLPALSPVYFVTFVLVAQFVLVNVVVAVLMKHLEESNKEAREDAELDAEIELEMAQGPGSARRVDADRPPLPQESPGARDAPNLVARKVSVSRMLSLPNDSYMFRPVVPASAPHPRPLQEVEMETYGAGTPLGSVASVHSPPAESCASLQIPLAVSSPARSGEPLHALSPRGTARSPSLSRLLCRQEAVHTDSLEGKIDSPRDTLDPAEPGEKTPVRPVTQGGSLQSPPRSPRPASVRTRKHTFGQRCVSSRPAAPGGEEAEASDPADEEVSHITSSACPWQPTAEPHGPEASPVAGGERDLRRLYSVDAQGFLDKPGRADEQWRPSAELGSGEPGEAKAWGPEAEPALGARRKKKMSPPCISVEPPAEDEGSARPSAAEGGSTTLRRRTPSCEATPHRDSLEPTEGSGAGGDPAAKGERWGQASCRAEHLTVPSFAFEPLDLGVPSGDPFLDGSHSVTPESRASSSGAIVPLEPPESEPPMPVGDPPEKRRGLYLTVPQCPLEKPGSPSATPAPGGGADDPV
# T6 sequence (Q9UBE0 whole entry): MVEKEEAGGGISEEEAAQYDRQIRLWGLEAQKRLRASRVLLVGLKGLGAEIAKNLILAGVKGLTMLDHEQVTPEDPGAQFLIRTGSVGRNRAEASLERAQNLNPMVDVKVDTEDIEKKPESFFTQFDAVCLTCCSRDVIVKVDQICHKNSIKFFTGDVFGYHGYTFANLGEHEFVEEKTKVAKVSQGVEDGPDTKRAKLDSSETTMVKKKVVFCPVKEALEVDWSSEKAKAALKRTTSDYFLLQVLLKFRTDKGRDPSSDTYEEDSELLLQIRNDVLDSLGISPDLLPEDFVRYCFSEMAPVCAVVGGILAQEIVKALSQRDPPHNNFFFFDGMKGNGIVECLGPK
# T6 sequence (Q9UBT2 whole entry): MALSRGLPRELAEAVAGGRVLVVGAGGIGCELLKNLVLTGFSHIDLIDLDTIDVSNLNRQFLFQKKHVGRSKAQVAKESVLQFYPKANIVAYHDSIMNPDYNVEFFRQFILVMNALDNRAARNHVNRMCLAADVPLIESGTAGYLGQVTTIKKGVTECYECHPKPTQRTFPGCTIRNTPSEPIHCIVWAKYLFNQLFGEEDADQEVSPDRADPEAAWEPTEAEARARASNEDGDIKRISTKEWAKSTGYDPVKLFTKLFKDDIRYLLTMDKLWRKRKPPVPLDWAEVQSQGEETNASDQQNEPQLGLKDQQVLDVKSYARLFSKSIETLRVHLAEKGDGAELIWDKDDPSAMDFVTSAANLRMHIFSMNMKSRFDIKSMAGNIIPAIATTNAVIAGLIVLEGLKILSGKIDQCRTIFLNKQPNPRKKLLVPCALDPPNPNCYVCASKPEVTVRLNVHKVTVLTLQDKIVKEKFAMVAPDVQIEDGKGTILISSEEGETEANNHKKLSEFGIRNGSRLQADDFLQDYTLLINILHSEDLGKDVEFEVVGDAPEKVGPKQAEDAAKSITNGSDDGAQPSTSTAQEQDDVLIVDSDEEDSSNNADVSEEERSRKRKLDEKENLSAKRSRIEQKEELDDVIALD
compound,measurement,setting,value
CCc1ccc(S(=O)(=O)NCc2csc(-c3ccccc3)n2)s1,EC50,[1],4.61 µM (active)
O=C(O)CNC(=O)CC1SC(NNC2=NC(=O)CS2)=NC1=O (stereo not drawn),IC50,[2],5.27 µM (active)
Cn1c2ccccc2c2cc(C(=O)NNC(=O)CCl)sc21,CC50,[3],21.3 µM (active)
same,AC50,[4],> 380 µM (inactive)
same,EC50,Protein RecA,15.7 µM (active)
COc1cc2ccccc2cc1C(=O)NC(=S)Nc1ccc(C(=O)O)cc1,EC50,[5],8.15 µM (active)
same,EC50,Streptokinase A,> 150 µM (not active)
same,EC50,Streptococcus,60.9 µM (active)
same,IC50,[2],4.12 µM (active)
CC(=O)N1c2ccccc2N(Cc2ccc(C)cc2C)C(=O)C1(C)C,EC50,[1],4.43 µM (active)
CC[C@@H](C)[C@H](CN[C@H](CNC)C(C)C)NC[C@@H](C)c1ccc(CC(C)C)cc1,CC50,[3],10 µM (active)
same,IC50,[6],> 20 µM (inactive)
Cc1cccc(C)c1OCC(=O)N=Nc1c(O)[nH]c2ccc(Br)cc12,IC50,SUMO-activating enzyme [7],10.6 µM (active)
COc1ccccc1N1CCN(C(=O)CCC(=O)Nc2nnc(CC(C)C)s2)CC1,EC50,BJ [8],> 150 µM (not active)
same,EC50,BJ [9],> 150 µM (not active)
same,EC50,BJ [10],> 150 µM (not active)
same,EC50,[11],> 150 µM (inconclusive)
Cc1ccsc1S(=O)(=O)N1CCCC(CCC(=O)NCc2ccccc2F)C1 (stereo not drawn),IC50,[12],> 50 µM (not active)
COc1cccc(-c2nnc(SCC(=O)NCc3ccc4c(c3)OCO4)n2Cc2ccco2)c1,EC50,[1],8.92 µM (active)
CC(=O)c1sc(NC(=O)COc2ccc(C(C)C)c(C)c2)nc1C,IC50,[12],9.95 µM (not active)
CCOc1ccc(C(=O)Nc2c3c(nn2C(C)(C)C)CSC3)cc1OCC,EC50,[1],3.79 µM (active)
CC(C)[C@H](NC(=O)Cc1ccccc1)C(=O)OCc1cc(=O)n2c(n1)sc1ccccc12,EC50,[13],21.5 µM (active)
same,IC50,[2],3.58 µM (active)
Cc1cccc(NS(=O)(=O)c2ccc(NC(=O)CN(c3cc([N+](=O)[O-])ccc3C)S(C)(=O)=O)cc2)c1,EC50,BJ [8],22.7 µM (active)
same,EC50,BJ [9],7.28 µM (active)
same,EC50,BJ [10],7.77 µM (inconclusive)
same,EC50,[11],> 150 µM (not active)
CCOc1cc(/C=N/N=C(\N)c2nonc2N)cc(Br)c1OCc1cccc2ccccc12,IC50,SUMO-activating enzyme [7],80 µM (active)
Cc1ccc(S(=O)(=O)N(C)C[C@H]2Oc3cc(-c4cccc(F)c4)ccc3S(=O)(=O)N([C@H](C)CO)C[C@H]2C)cc1,AC50,[14],1.47 µM (active)
same,AC50,[15],< 0.26 µM (active)
O=Cc1ccc(-c2cccs2)s1,AC50,HEK293,6.76 µM (active)
CC(C)NC(=S)N/N=C/c1cc(Br)ccc1O,CC50,[3],38.5 µM (active)
same,AC50,INS1,1.65 µM (active)
Cc1cccc(-c2nnc(S)n2/N=C/C=C/c2ccco2)c1,IC50,SUMO-activating enzyme [16],> 100 µM (inactive)
O=C(N/N=C/c1ccc(Cl)cc1)c1nc(O)c2cc([N+](=O)[O-])ccc2n1,IC50,SUMO-activating enzyme [7],21.5 µM (active)
same,IC50,SUMO-activating enzyme [16],22 µM (active)
CN(C)c1cccc(/N=C2/C=C(N3CCOCC3)CC(C)(C)C2)c1,IC50,[2],5.65 µM (active)
C/C=C/C1=C(Cl)C(=O)[C@@H](Cl)[C@@]1(O)C(=O)OC [(+)-CRYPTOSPORIPSIN],GI50,SN12K1,1.89 µM (inactive)
